Laboratory results published in paper PMC6114103, “17-DMAG inhibits the multiplication of several Babesia species and Theileria equi on in vitro cultures, and Babesia microti in mice” (International Journal for Parasitology: Drugs and Drug …, 2018).

Columns and labels:
[1] = introduction, background statement; ref Jilani et al., 2013; cited from earlier work
[2] = tested on: MDBK cells; experiment: cytotoxicity (drug-exposure viability) assay, CCK-8; type: cell-based, bovine
Procedure: (§1) Each medium was supplemented with 10% fetal bovine serum, 0.5% penicillin/streptomycin (Gibco, Life Technologies, USA), and an additional 1% glutamine. The medium was changed every 3–4 days and incubated until approximately 80% confluent. The cells were free from mycoplasma contamination after being checked by staining with DAPI (Sigma-Aldrich, USA). The detachment of cells from the culture flask was done using TrypLE™ Express (Gibco, Life Technologies, USA) after washing two times with Dulbecco's phosphate-buffered saline (DPBS). Subsequently, the counting of viable cells was carried out using a Neubauer improved C-Chip (NanoEntek Inc., Korea) after staining with 0.4% trypan blue solution. The drug-exposure viability assay was performed in accordance with the recommendation of the Cell Counting Kit-8 (CCK-8, Dojindo, Japan). Briefly, the assay was carried out using a 96-well plate at 37 °C in a humidified incubator with 5% CO2. One hundred microliters of cells at a density of 5 × 10^4 cells/ml was seeded per well and allowed to attach to the plate for 24 h. […] The exposure of drugs was carried out for 24 h, followed by the addition of 10 μl of CCK-8. The plate was further incubated for 3 h, and the absorbance was measured at 450 nm using a microplate reader.

[3] = tested on: B. divergens (Germany strain); experiment: in vitro multiplication inhibition assay (SYBR Green I fluorescence, 96 h), single drugs and two-drug combinations; type: cell-based, Babesia divergens; conditions: B. divergens, 96 h, triplicate, mean ± SD; read-out: IC50 on in vitro culture of parasites
Procedure: (§2) Babesia parasite cultures were maintained using a microaerophilic stationary-phase culture system ([Levy and Ristic, 1980]; [Avarzed et al., 1997]; [Igarashi et al., 1998]). Briefly, bovine Babesia parasites were grown in bovine red blood cells (RBC) in the specific complete medium for each species. The medium for B. bovis (Texas strain) contained GIT medium supplemented with 10% bovine serum, while the medium for B. bigemina (Argentina strain) and B. divergens (Germany strain) was Medium 199 and RPMI 1640 medium, respectively, supplemented with 40% bovine serum ([Rizk et al., 2016]). B. caballi (USDA strain) was grown using equine RBC in GIT medium supplemented with 10% equine serum. T. equi (USDA strain) was grown in equine RBC in M199 medium supplemented with 40% equine serum and hypoxanthine (MP Biomedicals, USA) at a final concentration of 13.6 μg/ml. All of the media included 60 U/ml penicillin G, 60 μg/ml streptomycin, and 0.15 μg/ml amphotericin B (Sigma-Aldrich, USA). The cultures were incubated at 37 °C in a humidified chamber with an atmosphere of 5% CO2, 5% O2, and 90% N2.
(§3) The assays were conducted in accordance with the protocol described previously with modification ([Guswanto et al., 2014]). Briefly, the cultures of B. bovis, B. bigemina, B. divergens, B. caballi, and T. equi with a parasitemia of 8%, 3%, 10%, 4%, and 9%, respectively, were harvested and adjusted to 1% parasitemia with fresh RBC before the inhibition assay. The 60 inner wells of a 96-well plate were used in the assay, while the peripheral wells were filled with sterile distillate water to reduce evaporation during incubation. To each well in triplicate, 2.5 μl of infected RBC (5 μl for B. divergens, B. caballi, and T. equi) was added and mixed with a culture medium containing the drug to a total volume of 100 μl. The stock solution of 17-DMAG, DA, and AV was dissolved in a culture medium at various concentrations using two-fold dilution. A culture medium containing DMSO at a final concentration of 0.2% was added to the well with infected RBC as a positive control and to the well with uninfected RBC as a negative control. Furthermore, a drug combination assay was conducted in parallel with the single drug assay at the constant ratio in accordance with the Chou–Talalay method ([Chou, 2006]). In the same plate with a single drug inhibition assay, a two-drug combination (DA+17-DMAG, DA + AV, and 17-DMAG + AV) at concentrations of 0.25 x IC50, 0.5 x IC50, IC50, 2 x IC50, and 4 x IC50 was added to the well containing infected RBC in triplicate. The plate was incubated in a humidified incubator with 5% CO2, 5% O2, and 90% N2. After 96 h, 100 μl of a lysis buffer containing SYBR Green I was added to each well. The plate was wrapped with aluminum foil to avoid direct light exposure and incubated at room temperature. After incubation for 6 h, fluorescence values were measured using a fluorescence spectrophotometer (Fluoroskan Ascent, Thermo Fisher Scientific, USA) with the excitation and emission wavelength at 485 nm and 518 nm, respectively. The fluorescence data were subtracted from the negative control and used to calculate the IC50.
(§4) The IC50 of 17-DMAG, DA, and AV was calculated from the percentage of inhibition on the in vitro multiplication of all tested species using non-linear regression (curve fit), available in GraphPad Prism (GraphPad Software Inc., USA). Combination index (CI) values for the drug combination were calculated using CompuSyn software ([Chou, 2006]). Since the chemotherapy effect is preferable at the highest inhibition, the degree of synergism was determined as the weighted average of CI values using a formula ((1 x IC50) + (2 x IC75) + (3 x IC90) + (4 x IC95))/10 ([Chou, 2006]). The differences among groups regarding the parasitemia, hematology profiles, and body weight in the B. microti–infected mouse model were analyzed using Student's t-test, available in GraphPad Prism software.

[4] = tested on: B. caballi (USDA strain); experiment: as above; type: cell-based, Babesia caballi; conditions: B. caballi, 96 h, triplicate, mean ± SD; read-out: IC50 on in vitro culture of parasites
Procedure: as §2, §3, §4

[5] = tested on: B. bigemina (Argentina strain); experiment: as above; type: cell-based, Babesia bigemina; conditions: B. bigemina, 96 h, triplicate, mean ± SD; read-out: IC50 on in vitro culture of parasites
Procedure: as §2, §3, §4

[6] = tested on: NIH/3T3 cells; experiment: cytotoxicity (drug-exposure viability) assay, CCK-8; type: cell-based, mouse
Procedure: as §1

[7] = tested on: B. bovis (Texas strain); experiment: in vitro multiplication inhibition assay (SYBR Green I fluorescence, 96 h), single drugs and two-drug combinations; type: cell-based, Babesia bovis; conditions: B. bovis, 96 h, triplicate, mean ± SD; read-out: IC50 on in vitro culture of parasites
Procedure: as §2, §3, §4

[8] = tested on: B. microti (Munich strain); experiment: inhibition assay using a B. microti-infected mouse model; type: in vivo, BALB/c mice; conditions: 17-DMAG 30, DA 25, AV 20 mg/kg BW; 17-DMAG + DA 15 + 15, 17-DMAG + AV 15 + 10, DA + AV 15 + 10 mg/kg BW; 5 consecutive days
Procedure: B. microti (Munich strain) was recovered from -80 °C stock in two 6-week female Balb/c mice (Clea, Japan). The parasitemia was monitored every 2 days. […] The inhibitory effect of 17-DMAG was also determined using a B. microti mouse model according to the previous protocol ([Goo et al., 2010]). Briefly, 35 female BALB/c mice aged 8 weeks received an intraperitoneal injection of 1 × 10^7 of B. microti-infected RBC and were divided into seven groups. Another group consisting of five mice was kept uninfected and untreated as a control. The multiplication of B. microti was observed from blood smears after staining with Giemsa using a light microscope. The drug treatment was initiated to all infected mice on day five, after the parasitemia reached approximately 1%, and continue to the total of five consecutive days. Group 1 was treated with 4% DMSO in saline water as a control intraperitoneally. […] The parasitemia was estimated from Giemsa-stained blood smears using microscopy in approximately 5000 RBC. Furthermore, the hematology profiles including RBC, hemoglobin, and hematocrit were measured from 10 μl of mouse blood using an automatic hematology analyzer (Celltac α MEK-6450, Nihon Kohden, Tokyo, Japan). The rate of parasitemia, hematology profiles, and mouse body weight was monitored for 60 days. The experiment was repeated once so each group contained 10 mice. […] Combination index (CI) values for the drug combination were calculated using CompuSyn software ([Chou, 2006]). […] The differences among groups regarding the parasitemia, hematology profiles, and body weight in the B. microti-infected mouse model were analyzed using Student's t-test, available in GraphPad Prism software. The difference was considered significant if P < 0.05.

[9] = at a concentration of 40 μM, separate assay

| Structure (SMILES) | solubility [1] | IC50 ([2]; MDBK, 24 h exposure, CCK-8, read-out: IC50 on cell line MDBK) [nM] | inhibition on MDBK cell viability [2, 9] | IC50 [3] [nM] | IC50 [4] [nM] | IC50 [5] [nM] | IC50 ([6]; NIH/3T3, 24 h exposure, CCK-8, read-out: IC50 on cell line NIH/3T3) [nM] | inhibition on NIH/3T3 cell viability [6, 9] | IC50 [7] [nM] | day p.i. on which parasite no longer detected in blood smears via microscopy (parasite clearance) [8] [day p.i.] |
| --- | --- | --- | --- | --- | --- | --- | --- | --- | --- | --- |
| C=CCNC1=C2C[C@@H](C)C[C@H](OC)[C@H](O)[C@@H](C)/C=C(\C)[C@H](OC(N)=O)[C@@H](OC)/C=C\C=C(/C)C(=O)NC(=CC1=O)C2=O [17-AAG, 17-N-allylamino-17-demethoxygeldanamycin] | poor solubility | – | – | – | – | – | – | – | – | – |
| CC(=O)NCC(=O)O.CC(=O)NCC(=O)O.N=C(N)c1ccc(N=NNc2ccc(C(=N)N)cc2)cc1 [DA, diminazene aceturate] | – | > 40000 | did not show any inhibition | 378 ± 39.3 | 13.4 ± 3.6 | 1850 ± 104 | > 40000 | did not show any inhibition | 190 ± 42.1 | ≤ 28 |
| COC1=C2C[C@@H](C)C[C@H](OC)[C@H](O)[C@@H](C)/C=C(\C)[C@H](OC(N)=O)[C@@H](OC)/C=C\C=C(/C)C(=O)NC(=CC1=O)C2=O [geldanamycin] | poor solubility | – | – | – | – | – | – | – | – | – |
